# Experimental data as given in US8461389B2, “Psycho-pharmaceuticals” (University College Dublin, National University of Ireland, …, priority 2008, dated 2013).
# What was measured:
# serotonin 5HT2c receptor = molecular target: T1, serotonin 5HT2c receptor (Homo sapiens, UniProt P28335); experiment: Novascreen receptor affinity screen (competition with reference ligand), 5HT2c; assay type: binding; details: 1 μM Captodiamine competing with a reference ligand; read-out: percent target inhibition, serotonin 5HT2c receptor
# T1 construct: Novascreen (contract screen)
# T1 sequence (P28335 33-458): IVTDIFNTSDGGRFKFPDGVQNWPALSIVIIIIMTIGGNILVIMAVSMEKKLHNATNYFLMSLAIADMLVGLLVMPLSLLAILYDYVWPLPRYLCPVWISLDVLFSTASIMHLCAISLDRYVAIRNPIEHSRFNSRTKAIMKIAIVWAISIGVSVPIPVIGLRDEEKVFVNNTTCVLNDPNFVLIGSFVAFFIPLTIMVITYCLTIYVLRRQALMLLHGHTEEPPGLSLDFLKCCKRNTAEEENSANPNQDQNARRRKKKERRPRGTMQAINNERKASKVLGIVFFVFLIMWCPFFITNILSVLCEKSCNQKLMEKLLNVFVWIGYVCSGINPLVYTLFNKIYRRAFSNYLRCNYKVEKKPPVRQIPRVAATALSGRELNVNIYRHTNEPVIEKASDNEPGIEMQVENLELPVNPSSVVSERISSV
# Protocol: (§1) The Structure (FIG. 9A), receptor affinity (FIG. 9B), pharmacokinetics (FIG. 9C) and growth factor modulation (FIG. 9D) of Captodiamine are provided. Analysis of receptor affinities was performed by Novascreen™ and those displacing >20% of the natural ligand are indicated by the filled boxes. Blood levels of Captodiamine were determined by GC mass spectroscopy. In separate samples taken from a cannulated jugular at increasing time intervals following a single intraperitoneal injection of tha drug (5 mg/kg). Growth factor analysis was performed using tissue homogenates and ELISA assays specific for each growth factor (Promega). Values were analysed using a Student t-test and those with a p value<0.05 were accepted as significant and are indicated with an asterisk.
# (§2) The higher the target inhibition value, the greater the affinity Captodiamine has for this particular receptor as it displaces a greater proportion of the reference ligand. This assay is an automated high throughput assay performed on cell lines that express only one type of receptor and was carried out by Novascreen (www.novascreen.com). Receptor affinity is a good starting point for determining the mechanism of action for a particular compound.
# C57B16 mice = experiment: Forced swim test; assay type: in vivo; details: 3 and 5 mg/kg i.p.; FIGS. 10A and 10B
# Protocol: • 1. Fill a 12 cm diameter glass cylinder to 10 cm with 22° C. water. • 2. Place two animals simultaneously in individual side-by-side cylinders separated by an opaque screen. • 3. Place mice in the cylinders for 6 minutes. • 4. Observe the behaviour of the mice for the last 4-minutes of the 6-minute experimental session. • 5. Sessions are videotaped and scored blind, Immobility is scored by summing the time spent immobile; movements necessary to maintain the animals head above water were not scored with data from treated groups compared with data from the control group using nonpaired Student's t tests (two tailed). • 6. Animals are dried with paper towels and heat lamps. FST in Rats: Habituation Session (Day 1) • 1. On Day 1, […] prior to testing, place the animals in the experimental room 60 min before the beginning of the habituation session. Randomly assign animals to a drug treatment, but give all animals within a cage the same treatment. Make food and water available throughout the experiment. • 2. Weigh two animals individually, then place one rat in each of the two cylinders (20 cm in diameter×40 cm high) containing water (25° C.) for 15 min (habituation session). No scoring of immobility is performed during the habituation session. […]
# Values are expressed as mean±S.E.M (n=8). Statistical difference was determined using a Mann Whitney non-parametric U-test. […]
# Sigma 2 receptor = molecular target: T2, Sigma 2 receptor (Homo sapiens, UniProt Q5BJF2); experiment: Novascreen receptor affinity screen (competition with reference ligand), Sigma 2; assay type: binding; details: 1 μM Captodiamine competing with a reference ligand; read-out: percent target inhibition, Sigma 2 receptor
# T2 construct: Novascreen (contract screen)
# Protocol: as §1, §2
# [1] = tested on: GDNF (Glial cell derived neurotrophic factor); experiment: GDNF levels in brain regions by ELISA after sub-chronic administration; assay type: in vivo, mice; details: sub-chronic 7 day treatment, FIG. 9D
# Protocol: Neurotrophic factor concentration was determined by using an ELISA purchased from Promega Inc;
# The Experimental protocol employed in the behavioural evaluation of Captodiamine is set out as follows: Three separate cohorts of C57B16 mice were employed in the behavioural evaluation of Captodiamine (see FIG. 7). Cohort 1 was used to evaluate the drug effect on prepulse inhibition, spatial learning, open-field and novel object recognition. Cohort 2 was used to evaluate drug effects on the forced swim test and the elevated X-maze. The behavioural tests were administered in sequence as per day number indicated in the bar of FIG. 7. The drug was administered by the intraperitoneal route and on the day of training the drug was administered after the behavioural analysis. […]
# The Structure (FIG. 9A), receptor affinity (FIG. 9B), pharmacokinetics (FIG. 9C) and growth factor modulation (FIG. 9D) of Captodiamine are provided. […] Blood levels of Captodiamine were determined by GC mass spectroscopy. […] Values were analysed using a Student t-test and those with a p value<0.05 were accepted as significant and are indicated with an asterisk.
# T2 sequence (Q5BJF2 whole entry, species assumed): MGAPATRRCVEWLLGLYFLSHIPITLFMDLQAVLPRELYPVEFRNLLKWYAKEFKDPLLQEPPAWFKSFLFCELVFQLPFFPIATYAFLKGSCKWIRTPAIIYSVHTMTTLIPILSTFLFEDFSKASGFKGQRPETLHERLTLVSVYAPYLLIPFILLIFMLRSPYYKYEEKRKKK
compound,measurement,setting,value
"CCCCSc1ccc(C(SCCN(C)C)c2ccccc2)cc1 (centres unmarked) [Captodiamine, 2-[(4-butylsulfanylphenyl)-phenyl-methyl]sulfanyl-N,N-dimethyl-ethanamin]",inhibition at 1 µM,serotonin 5HT2c receptor,> 80%
same,time to immobility in the forced swim test,C57B16 mice,significant increase on time to immobility
same,inhibition at 1 µM,Sigma 2 receptor,> 20%
same,"GDNF expression levels, hypothalamus",[1],but not in either the hippocampus or the hypothalamus
same,"GDNF expression levels, prefrontal cortex",[1],significantly decreased
